Where two headings read alike, the source gives them in different places.

Test [1] addresses T1, PRMT5-MEP50 enzyme complex (Homo sapiens, UniProt O14744).
T1 construct: Full-length (FL)-PRMT5-MEP50 enzyme complex (recombinant proteins from baculovirus-transfected Sf21 cells: FL-PRMT5; MW=73837 kDa and FL-MEP50; MW=38614); made in house; host or cells: baculovirus-transfected Sf21 cells
As to the kind of experiment: PRMT5-MEP50 Enzyme Methylation Assay (Version A). Type of test: biochemical.

In test [2] the target is T2, PRMT5 (Homo sapiens, UniProt O14744).
T2 construct: seeded with 4000 MCF-7 cells in 30 μl media; endogenous in cells; host or cells: MCF-7 cells
T2 sequence (O14744 whole entry): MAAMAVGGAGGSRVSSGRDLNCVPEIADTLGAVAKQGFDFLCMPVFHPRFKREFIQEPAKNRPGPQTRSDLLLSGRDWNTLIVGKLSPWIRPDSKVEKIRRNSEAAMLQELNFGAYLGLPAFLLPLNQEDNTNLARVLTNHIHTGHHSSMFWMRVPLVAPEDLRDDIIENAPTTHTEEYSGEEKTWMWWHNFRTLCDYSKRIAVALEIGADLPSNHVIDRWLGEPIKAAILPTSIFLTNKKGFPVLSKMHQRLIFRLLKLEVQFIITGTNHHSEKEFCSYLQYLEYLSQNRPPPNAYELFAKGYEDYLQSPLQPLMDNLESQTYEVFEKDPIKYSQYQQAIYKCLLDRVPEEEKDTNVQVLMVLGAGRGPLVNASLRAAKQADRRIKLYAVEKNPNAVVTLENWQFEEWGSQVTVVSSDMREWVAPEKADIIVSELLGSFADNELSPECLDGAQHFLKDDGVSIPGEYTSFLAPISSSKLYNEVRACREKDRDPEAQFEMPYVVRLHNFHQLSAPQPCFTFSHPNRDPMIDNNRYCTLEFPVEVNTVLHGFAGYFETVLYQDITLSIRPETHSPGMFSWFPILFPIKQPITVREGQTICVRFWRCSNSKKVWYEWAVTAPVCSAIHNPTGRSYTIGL
T2 sequence (Q9BQA1 whole entry partner): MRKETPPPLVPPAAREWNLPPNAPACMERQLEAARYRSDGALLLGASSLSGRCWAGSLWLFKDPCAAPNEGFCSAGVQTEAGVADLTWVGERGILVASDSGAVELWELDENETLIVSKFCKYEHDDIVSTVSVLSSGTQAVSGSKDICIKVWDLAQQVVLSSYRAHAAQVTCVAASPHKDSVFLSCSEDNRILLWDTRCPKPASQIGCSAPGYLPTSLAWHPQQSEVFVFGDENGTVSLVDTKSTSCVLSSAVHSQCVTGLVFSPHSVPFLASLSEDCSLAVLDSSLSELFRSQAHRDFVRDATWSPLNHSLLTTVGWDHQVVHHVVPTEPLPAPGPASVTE
Nature of the test: PRMT5 Cell Target Engagement (TE) Assay. The format is cell-based. The settings on record: MCF-7 cells, treated for 3 days, symmetric dimethylation of arginine (SDMA) by high content imaging. Summed up: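 MCF-7 cells treated 3 days at 37 °C with a ten-point 1:3 titration from 10000 nM. Fixed cells immunostained with anti-SDMA and Alexa488 secondary; nuclear fluorescence quantified by high-content imaging versus DMSO wells, with IC50 from a 4-parameter fit.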

[3] abbreviates: only one EC50 shown: 4 parameters single site sigmoidal model, 60 min pre-incubation with SAM, read-out: Enzyme Methylation Assay Version A (EC50).
Where [4] appears, read: first of two EC50s: 7 parameters biphasic model, read-out: Enzyme Methylation Assay Version A (EC50_1).
The mark [5] stands for this setting: second of two EC50s: 7 parameters biphasic model, read-out: Enzyme Methylation Assay Version A (EC50_2).

T1 sequence (O14744 whole entry): as the sequence (O14744 whole entry) above
T1 sequence (Q9BQA1 whole entry partner): as the sequence (Q9BQA1 whole entry partner) above

As to `CCOc1cnc(NC2CCN(C(C)=O)CC2)cc1C(=O)N1CC[C@H](N2CCc3ccccc3C2)[C@@H](O)C1` [Example 107, 1-(4-((4-((3S,4S)-4-(3,4-dihydroisoquinolin-2(1H)-yl)-3-hydroxypiperidine-1-carbonyl)-5-ethoxypyridin-2-yl)amino)piperidin-1-yl)ethan-1-one], the EC50 is 2.1 nM in test [1] (setting [3]) and 7.9 nM in test [2].
For `O=C(c1cc(NC2CCN(C(=O)C3CC3)CC2)ncc1F)N1CC[C@H](N2CCc3ccccc3C2)[C@@H](O)C1` [Example 108, (2-((1-(cyclopropanecarbonyl)piperidin-4-yl)amino)-5-fluoropyridin-4-yl)((3S,4S)-4-(3,4-dihydroisoquinolin-2(1H)-yl)-3-hydroxypiperidin-1-yl)methanone], in that order: 1.3 nM and 3.8 nM.
On the same counts, the results for `COC(=O)N1CCC(Nc2cc(C(=O)N3CC[C@H](N4CCc5ccccc5C4)[C@@H](O)C3)c(F)cn2)CC1` [Example 109, methyl 4-((4-((3S,4S)-4-(3,4-dihydroisoquinolin-2(1H)-yl)-3-hydroxypiperidine-1-carbonyl)-5-fluoropyridin-2-yl)amino)piperidine-1-carboxylate] are 1.2 nM and 3.5 nM.
Regarding `CN(C)C(=O)N1CCC(Nc2cc(C(=O)N3CC[C@H](N4CCc5ccccc5C4)[C@@H](O)C3)c(F)cn2)CC1` [Example 110, 4-((4-((3S,4S)-4-(3,4-dihydroisoquinolin-2(1H)-yl)-3-hydroxypiperidine-1-carbonyl)-5-fluoropyridin-2-yl)amino)-N,N-dimethylpiperidine-1-carboxamide], the EC50 in test [1] (setting [3]) was 1.4 nM; in test [2], 8.1 nM.
With `CCC(=O)N1CCC(Nc2cc(C(=O)N3CC[C@H](N4CCc5ccccc5C4)[C@@H](O)C3)c(F)cn2)CC1` [Example 111, 1-(4-((4-((3S,4S)-4-(3,4-dihydroisoquinolin-2(1H)-yl)-3-hydroxypiperidine-1-carbonyl)-5-fluoropyridin-2-yl)amino)piperidin-1-yl)propan-1-one], the EC50 was found to be 1.4 nM in test [1] (setting [3]) and 6.1 nM in test [2].
As to `CN1CCC(Nc2cc(C(=O)N3CC[C@H](N4CCc5ccccc5C4)[C@@H](O)C3)c(F)cn2)CC1=O` (stereo partly drawn) [Example 112, 4-((4-((3S,4S)-4-(3,4-dihydroisoquinolin-2(1H)-yl)-3-hydroxypiperidine-1-carbonyl)-5-fluoropyridin-2-yl)amino)-1-methylpiperidin-2-one], the EC50 in test [1] (setting [4]) was found to be 4.5 nM; in test [1] (setting [5]), 4420 nM; in test [2] it was 50 nM.
In the case of `O=C(c1cc(NC2CC3CCC(C2)N3)ncc1F)N1CC[C@H](N2CCc3ccccc3C2)[C@@H](O)C1` (stereo partly drawn) [Example 121, (2-((8-azabicyclo[3.2.1]octan-3-yl)amino)-5-fluoropyridin-4-yl)((3S,4S)-4-(3,4-dihydroisoquinolin-2(1H)-yl)-3-hydroxypiperidin-1-yl)methanone], the EC50 in test [1] (setting [4]) was 14 nM; in test [1] (setting [5]), 2880 nM; in test [2] it was 1590 nM.
On to `CC(=O)N1C2CCC1CC(Nc1cc(C(=O)N3CC[C@H](N4CCc5ccccc5C4)[C@@H](O)C3)c(F)cn1)C2` (stereo partly drawn) [Example 122, 1-(3-((4-((3S,4S)-4-(3,4-dihydroisoquinolin-2(1H)-yl)-3-hydroxypiperidine-1-carbonyl)-5-fluoropyridin-2-yl)amino)-8-azabicyclo[3.2.1]octan-8-yl)ethan-1-one], for which the EC50 was determined as 3.4 nM in test [1] (setting [3]) and 5.9 nM in test [2].
For `CC(=O)N1CC[C@@H](CNc2cc(C(=O)N3CC[C@H](N4CCc5ccccc5C4)[C@@H](O)C3)c(F)cn2)C1` [Example 123, 1-((S)-3-(((4-((3S,4S)-4-(3,4-dihydroisoquinolin-2(1H)-yl)-3-hydroxypiperidine-1-carbonyl)-5-fluoropyridin-2-yl)amino)methyl)pyrrolidin-1-yl)ethan-1-one], in that order: 4.1 nM and 17 nM.
Consider `CC(=O)N1C[C@H]2CC[C@@H](C1)C2Nc1cc(C(=O)N2CC[C@H](N3CCc4ccccc4C3)[C@@H](O)C2)c(F)cn1` (stereo partly drawn) [Example 124, 1-((1R,5S)-8-((4-((3S,4S)-4-(3,4-dihydroisoquinolin-2(1H)-yl)-3-hydroxypiperidine-1-carbonyl)-5-fluoropyridin-2-yl)amino)-3-azabicyclo[3.2.1]octan-3-yl)ethan-1-one], for which the EC50 was 5.2 nM in test [1] (setting [4]), 4270 nM in test [1] (setting [5]) and 33 nM in test [2].
For the compound `N#CC1(c2ccc3nc(C(=O)N4CC[C@H](N5CCc6ccccc6C5)[C@@H](O)C4)cn3c2)CC1` [Example 125, 1-(2-((3S,4S)-4-(3,4-dihydroisoquinolin-2(1H)-yl)-3-hydroxypiperidine-1-carbonyl)imidazo[1,2-a]pyridin-6-yl)cyclopropane-1-carbonitrile], the EC50 in test [1] (setting [4]) is around 58 nM; in test [1] (setting [5]), 13700 nM; in test [2], 1750 nM.
As to `O=C(c1ccc2c(O)c(CC(F)(F)F)cnc2c1)N1CC[C@H](N2CCc3ccccc3C2)[C@@H](O)C1` [Example 126, ((3S,4S)-4-(3,4-dihydroisoquinolin-2(1H)-yl)-3-hydroxypiperidin-1-yl)(4-hydroxy-3-(2,2,2-trifluoroethyl)quinolin-7-yl)methanone], the EC50 worked out at 1.1 nM in test [1] (setting [4]), 1330 nM in test [1] (setting [5]) and 69 nM in test [2].
For `O=C(c1cn2cc(Cl)ccc2n1)N1CC[C@H](N2CCc3ccccc3C2)[C@@H](O)C1` [Example 132, (6-chloroimidazo[1,2-a]pyridin-2-yl)[(3S,4S)-4-(3,4-dihydroisoquinolin-2(1H)-yl)-3-hydroxypiperidin-1-yl]methanone], the EC50 in test [1] (setting [3]) was 3.2 nM; in test [2], 32 nM.
Turning to `O=C(c1nn2cc(Br)cnc2c1Cl)N1CC[C@H](N2CCc3ccccc3C2)[C@@H](O)C1` [Example 133, (6-bromo-3-chloropyrazolo[1,5-a]pyrimidin-2-yl)[(3S,4S)-4-(3,4-dihydroisoquinolin-2(1H)-yl)-3-hydroxypiperidin-1-yl]methanone], the EC50 came out at 3.2 nM in test [1] (setting [4]), 569 nM in test [1] (setting [5]) and 140 nM in test [2].
Turning to `Cc1cc(Br)c2nc(C(=O)N3CC[C@H](N4CCc5ccccc5C4)[C@@H](O)C3)cn2c1` [Example 134, (8-bromo-6-methylimidazo[1,2-a]pyridin-2-yl)[(3S,4S)-4-(3,4-dihydroisoquinolin-2(1H)-yl)-3-hydroxypiperidin-1-yl]methanone], the EC50 in test [1] (setting [4]) was 1.8 nM; in test [1] (setting [5]), 202 nM; in test [2], 43 nM.
Turning to `Cc1cc(Br)cn2cc(C(=O)N3CC[C@H](N4CCc5ccccc5C4)[C@@H](O)C3)nc12` [Example 135, (6-bromo-8-methylimidazo[1,2-a]pyridin-2-yl)[(3S,4S)-4-(3,4-dihydroisoquinolin-2(1H)-yl)-3-hydroxypiperidin-1-yl]methanone], the EC50 was 1.7 nM in test [1] (setting [3]) and 12 nM in test [2].
On to `Cc1cc(Cl)c2nc(C(=O)N3CC[C@H](N4CCc5ccccc5C4)[C@@H](O)C3)cn2c1` [Example 136, (8-chloro-6-methylimidazo[1,2-a]pyridin-2-yl)[(3S,4S)-4-(3,4-dihydroisoquinolin-2(1H)-yl)-3-hydroxypiperidin-1-yl]methanone], for which the EC50 in test [1] (setting [4]) was determined as 1.2 nM; in test [1] (setting [5]), 79 nM; in test [2], 50 nM.
Consider `O=C(c1cn2cc(C(F)(F)F)cc(Cl)c2n1)N1CC[C@H](N2CCc3ccccc3C2)[C@@H](O)C1` [Example 137, [8-chloro-6-(trifluoromethyl)imidazo[1,2-a]pyridin-2-yl][(3S,4S)-4-(3,4-dihydroisoquinolin-2(1H)-yl)-3-hydroxypiperidin-1-yl]methanone], for which the EC50 stood at 1.1 nM in test [1] (setting [3]) and 9.2 nM in test [2].
Take `O=C(c1cn2cc(Cl)cc(Br)c2n1)N1CC[C@H](N2CCc3ccccc3C2)[C@@H](O)C1` [Example 138, (8-bromo-6-chloroimidazo[1,2-a]pyridin-2-yl)[(3S,4S)-4-(3,4-dihydroisoquinolin-2(1H)-yl)-3-hydroxypiperidin-1-yl]methanone]: the EC50 stood at 1.1 nM in test [1] (setting [4]), 39 nM in test [1] (setting [5]) and 17 nM in test [2].
As for `O=C(c1cn2cc(Br)cc(I)c2n1)N1CC[C@H](N2CCc3ccccc3C2)[C@@H](O)C1` [Example 139, (6-bromo-8-iodoimidazo[1,2-a]pyridin-2-yl)[(3S,4S)-4-(3,4-dihydroisoquinolin-2(1H)-yl)-3-hydroxypiperidin-1-yl]methanone], the EC50 in test [1] (setting [3]) turned out to be 1.3 nM; in test [2], 7.6 nM.
With `O=C(c1cn2cc(Cl)cc(Cl)c2n1)N1CC[C@H](N2CCc3ccccc3C2)[C@@H](O)C1` [Example 140, (6,8-dichloroimidazo[1,2-a]pyridin-2-yl)[(3S,4S)-4-(3,4-dihydroisoquinolin-2(1H)-yl)-3-hydroxypiperidin-1-yl]methanone], the values for the EC50 in test [1] (setting [4]), in test [1] (setting [5]) and in test [2] were 0.8 nM, 65 nM and 28 nM, respectively.
Regarding `O=C(c1cn2cc(Br)cc(F)c2n1)N1CC[C@H](N2CCc3ccccc3C2)[C@@H](O)C1` [Example 141, (6-bromo-8-fluoroimidazo[1,2-a]pyridin-2-yl)[(3S,4S)-4-(3,4-dihydroisoquinolin-2(1H)-yl)-3-hydroxypiperidin-1-yl]methanone], the EC50 in test [1] (setting [3]) was determined as 1.1 nM; in test [2] it was 21 nM.

For the origin of these results see patent publication US12595248B2, “PRMT5 inhibitors” (Merck Sharp & Dohme LLC, priority 2019, dated 2026).
